Laboratory results published in publication PMC10461232, “Structure-Based Design of Transport-Specific Multitargeted One-Carbon Metabolism Inhibitors in Cytosol and Mitochondria” (Journal of Medicinal Chemistry, 2023).
Read-outs that look alike come from different tables or passages of the source.

Tests used:
[1] = system: R2 (MTXRIIOuaR2-4) CHO cells; assay: Growth inhibition, transporter-null R2 CHO cells; format: cell-based, Chinese hamster; conditions: Cricetulus griseus, 96 h, read-out: IC50 R2
PC43-10 (RFC) CHO cells = assay: Growth inhibition, PC43-10 CHO cells expressing human RFC; format: cell-based, Chinese hamster; conditions: Cricetulus griseus, 96 h, read-out: IC50 PC43-10 (RFC)
[2] = system: R2/PCFT4 (PCFT) CHO cells; assay: Growth inhibition, R2/PCFT4 CHO cells expressing human PCFT; format: cell-based, Chinese hamster; conditions: Cricetulus griseus, 96 h, read-out: IC50 R2/PCFT4 (PCFT)
RT16 (FRα) CHO cells = assay: Growth inhibition, RT16 CHO cells expressing human FRα; format: cell-based, Chinese hamster; conditions: 96 h, 96 h, mean (SE)
D4 (FRβ) CHO cells = assay: Growth inhibition, D4 CHO cells expressing human FRβ; format: cell-based, Chinese hamster; conditions: for IC50: Cricetulus griseus, CHO, 96 h, mean (SE); for difference between D4 (FRβ) and RT16 (FRα) IC50: RT16 versus D4 CHO cells
KB (RFC/PCFT/FRα) cells = assay: Growth inhibition, KB nasopharyngeal carcinoma cells; format: cell-based, human; conditions: Homo sapiens, KB, folate-free RPMI 1640, 2 nM leucovorin, mean (SE)
Protocol: The CHO cells were cultured in α-minimal essential medium (MEM) supplemented with 10% bovine calf serum (Fisher Scientific), penicillin (1000 U/mL)/streptomycin (1000 μg/mL), and 2 mM L-glutamine at 37 °C with 5% CO2. All of the R2 transfected cells (PC43-10, RT16, R2/PCFT4) were cultured in complete α-MEM media plus 1 mg/mL G418. Prior to the cytotoxicity assays (see below), RT16 and D4 cells were cultured for 3 days in complete folate-free RPMI 1640 (without added folate), and R2/PCFT4 and R2 cells were cultured in complete folate-free RPMI 1640 supplemented with dialyzed fetal bovine serum (Fisher Scientific) and 25 nM leucovorin plus 1 mg/mL G418. KB cells were routinely cultured in folate-free RPMI 1640 medium, supplemented with 10% fetal bovine serum (Fisher Scientific), penicillin-streptomycin solution, and 2 mM L-glutamine at 37 °C with 5% CO2.
For growth inhibition studies, cells (CHO, KB) were plated in 96-well dishes (∼2500–5000 cells/well, total volume of 200 μL medium) over a range of antifolate concentrations.[69],[77] The medium was folate-free RPMI 1640 with 10% dialyzed serum and antibiotics supplemented with 25 nM leucovorin for experiments with R2, PC43-10, and R2/PCFT4 cells. For experiments with RT16, D4, and KB cells, cells were cultured in folate-free RPMI medium with 10% dialyzed fetal bovine serum and antibiotics; the medium was supplemented with 2 nM leucovorin. […] Incubations were routinely for up to 96 h. Viable cells (reflecting cell viability) were assayed with Cell Titer Blue reagent (Promega, Madison, WI), with fluorescence measured (590 nm emission, 560 nm excitation) with a fluorescence plate reader.

HPAC (RFC/PCFT) cells = assay: Proliferation inhibition, HPAC pancreatic adenocarcinoma cells; format: cell-based, human; conditions: for IC50: HPAC cells, folate- and glycine-free RPMI, 25 nM leucovorin, mean (SE)
From the text: (§1) The RFC-, PCFT-, and FR-null MTXRIIOua^R2–4 (R2), and RFC- (PC43-10), PCFT- (R2/PCFT4), FRα- (RT16), and FRβ- (D4) expressing CHO sublines were previously described.[62]−[64],[76] HPAC pancreatic cancer cells were generously provided by Dr. Yubin Ge (Karmanos Cancer Institute, Detroit, MI). Human pancreatic normal epithelial (HPNE) cells[67] were a gift from M. Oulette (University of Nebraska Medical Center, Omaha, NE). KB human nasopharyngeal carcinoma cells were purchased from the American Type Culture Collection (Manassas, VA). All human cell lines were validated by STR analysis by Genetica DNA Laboratories (Burlington, NC). Cell lines were tested for Mycoplasma by PCR using a Mycloplasma testing kit (Venor GeM Mycoplasma Detection Kit, Sigma). Frozen stocks were generated from authenticated Mycoplasma-free cultures.

HPNE (RFC) cells = assay: Proliferation inhibition, HPNE normal pancreatic epithelial cells; format: cell-based; conditions: Homo sapiens, folate- and glycine-free RPMI, 25 nM leucovorin
From the text: as §1

[3] = transporter-null CHO cells, 25 nM leucovorin, mean (SE)
[4] = CHO cells expressing human RFC, 25 nM leucovorin, mean (SE)
[5] = CHO cells expressing human PCFT, 25 nM leucovorin, mean (SE)
[6] = Cricetulus griseus, CHO cells expressing human FRα, 2 nM leucovorin, read-out: IC50 RT16 (FRα)
[7] = CHO cells expressing human FRβ, 2 nM leucovorin, read-out: IC50 D4 (FRβ)
[8] = Cricetulus griseus, read-out: IC50 RT16 (FRα), CHO cells expressing human FRα, 96 h, 2 nM leucovorin
[9] = read-out: IC50 D4 (FRβ), CHO cells expressing human FRβ, 96 h, 2 nM leucovorin

Row | IC50 (KB (RFC/PCFT/FRα) cells) | IC50 (HPAC (RFC/PCFT) cells; Homo sapiens, HPAC) | IC50 HPAC (RFC/PCFT) (HPAC (RFC/PCFT) cells) | SMILES | IC50 [1, 3] | IC50 (PC43-10 (RFC) CHO cells; [4]) | IC50 [2, 5] | IC50 (RT16 (FRα) CHO cells; [6]) | IC50 (D4 (FRβ) CHO cells; [7]) | difference between D4 (FRβ) and RT16 (FRα) IC50 (D4 (FRβ) CHO cells) | IC50 (HPNE (RFC) cells) | IC50 (HPAC (RFC/PCFT) cells) | IC50 (RT16 (FRα) CHO cells; CHO cells expressing human FRα, 2 nM leucovorin, read-out: IC50 RT16 (FRα)) | IC50 ([1]; CHO) | IC50 (PC43-10 (RFC) CHO cells) | IC50 [2] | IC50 (RT16 (FRα) CHO cells; [8]) | IC50 (D4 (FRβ) CHO cells; [9])
1 | 23.7 nM | 2990 nM | – | Nc1nc2ccn(CCCc3ccc(C(=O)N[C@@H](CCC(=O)O)C(=O)O)s3)c2c(=O)[nH]1 [Compound 4] | > 1000 nM | > 1000 nM | 497 nM | 33 nM | 1.94 nM | 20- to 40 fold | > 5000 nM | – | – | – | – | – | – | –
2 | 8.23 nM | 1200 to 1600 nM | – | Nc1nc2ccn(CCCOc3ccc(C(=O)N[C@@H](CCC(=O)O)C(=O)O)cc3)c2c(=O)[nH]1 [Compound 5, (4-(3-(2-Amino-4-oxo-3,4-dihydro-5H-pyrrolo[3,2-d]pyrimidin-5-yl)propoxy)benzoyl)-L-glutamic Acid] | > 1000 nM | > 1000 nM | > 1000 nM | 18.7 nM | 0.45 nM | 20- to 40 fold | > 5000 nM | 1670 nM | – | – | – | – | – | –
3 | 11.2 nM | 4620 nM | – | Nc1nc2ccn(CCOc3ccc(C(=O)N[C@@H](CCC(=O)O)C(=O)O)cc3)c2c(=O)[nH]1 [Compound 6, (4-(3-(2-Amino-4-oxo-3,4-dihydro-5H-pyrrolo[3,2-d]pyrimidin-5-yl)ethoxy)benzoyl)-L-glutamic Acid] | > 1000 nM | > 1000 nM | 431 nM | 67.7 nM | 1.62 nM | 20- to 40 fold | > 5000 nM | – | – | – | – | – | – | –
4 | 6.81 nM | 2590 nM | – | Nc1nc2ccn(CCCCc3ccc(C(=O)N[C@@H](CCC(=O)O)C(=O)O)cc3)c2c(=O)[nH]1 [Compound 15] | > 1000 nM | > 1000 nM | > 1000 nM | < 3 nM | – | – | > 5000 nM | – | 1.64 nM | – | – | – | – | –
5 | 8.34 nM | 166 nM | 2600 to 4600 nM | Nc1nc2ccn(CCCc3ccc(C(=O)N[C@@H](CCC(=O)O)C(=O)O)c(F)c3)c2c(=O)[nH]1 [Compound 13, (4-(3-(2-Amino-4-oxo-3,4-dihydro-5H-pyrrolo[3,2-d]pyrimidin-5-yl)propyl)-2-fluorobenzoyl)-L-glutamic Acid] | > 1000 nM | 233 nM | 98 nM | 16.3 nM | 0.63 nM | 20- to 40 fold | > 5000 nM | – | – | – | – | – | – | –
6 | 6.3 nM | 1620 nM | – | Nc1nc2ccn(CCCCCc3ccc(C(=O)N[C@@H](CCC(=O)O)C(=O)O)cc3)c2c(=O)[nH]1 [Compound 9] | > 1000 nM | > 1000 nM | > 1000 nM | 13.5 nM | 6.33 nM | – | > 5000 nM | – | – | – | – | – | – | –
7 | 9.26 nM | > 5000 nM | – | Nc1nc2ccn(CCCCc3cc(F)c(C(=O)N[C@@H](CCC(=O)O)C(=O)O)c(F)c3)c2c(=O)[nH]1 [Compound 12, (4-(4-(2-Amino-4-oxo-3,4-dihydro-5H-pyrrolo[3,2-d]pyrimidin-5-yl)butyl)-2,6-difluorobenzoyl)-L-glutamic Acid] | > 1000 nM | > 1000 nM | > 1000 nM | 2.55 nM | 7.5 nM | – | > 5000 nM | – | – | – | – | – | – | –
8 | 6.17 nM | > 5000 nM | – | Nc1nc2ccn(CCCNc3ccc(C(=O)N[C@@H](CCC(=O)O)C(=O)O)cc3)c2c(=O)[nH]1 [Compound 8, (4-((3-(2-Amino-4-oxo-3,4-dihydro-5H-pyrrolo[3,2-d]pyrimidin-5-yl)propyl)amino)benzoyl)-L-glutamic Acid] | > 1000 nM | > 1000 nM | > 1000 nM | 6.88 nM | – | – | > 5000 nM | – | – | – | – | – | – | –

Row | SMILES | IC50 (KB (RFC/PCFT/FRα) cells) | IC50 (HPAC (RFC/PCFT) cells; Homo sapiens, HPAC) | IC50 HPAC (RFC/PCFT) (HPAC (RFC/PCFT) cells) | IC50 [1, 3] | IC50 (PC43-10 (RFC) CHO cells; [4]) | IC50 [2, 5] | IC50 (RT16 (FRα) CHO cells; [6]) | IC50 (D4 (FRβ) CHO cells; [7]) | difference between D4 (FRβ) and RT16 (FRα) IC50 (D4 (FRβ) CHO cells) | IC50 (HPNE (RFC) cells) | IC50 (HPAC (RFC/PCFT) cells) | IC50 (RT16 (FRα) CHO cells; CHO cells expressing human FRα, 2 nM leucovorin, read-out: IC50 RT16 (FRα)) | IC50 ([1]; CHO) | IC50 (PC43-10 (RFC) CHO cells) | IC50 [2] | IC50 (RT16 (FRα) CHO cells; [8]) | IC50 (D4 (FRβ) CHO cells; [9])
9 | Nc1nc2ccn(CCCCCc3ccc(C(=O)N[C@@H](CCC(=O)O)C(=O)O)c(F)c3)c2c(=O)[nH]1 [Compound 11, (4-(5-(2-Amino-4-oxo-3,4-dihydro-5H-pyrrolo[3,2-d]pyrimidin-5-yl)pentyl)-2-fluorobenzoyl)-L-glutamic Acid] | 6.25 nM | 1230 nM | – | – | – | – | – | – | – | > 5000 nM | – | – | > 1000 nM | > 1000 nM | > 1000 nM | 26.8 nM | 6.95 nM
10 | Nc1nc2ccn(CCCCCc3ccc(C(=O)N[C@@H](CCC(=O)O)C(=O)O)s3)c2c(=O)[nH]1 [Compound 3] | 7.47 nM | 746 nM | – | – | – | – | – | – | – | > 5000 nM | 746 nM | – | > 1000 nM | > 1000 nM | > 1000 nM | 14.6 nM | 7.89 nM
